Results: patent US20240108617A1, “AN INHALABLE DRY POWDER COMPOSITION FOR PULMONARY DISEASES” (GLENMARK SPECIALTY S.A., priority 2019, published 2024)
pIC50: −log10 of the molar value.

Legend:
IL-17 [1] = assay: Ex-vivo IL-17 inhibition from bronchoalveolar lavage (BAL) cells from COPD patients; type: cell-based, human; conditions: for pIC50: stimulated BAL cells from COPD patients, read-out: IC50, IL-17 release
Method: The test compound was prepared by 10 mM stock of Compound (I) was prepared in 100% DMSO. The saline was prepared by 0.85 gm of NaCl weighted and dissolved in 100 mL distilled water and adjusted the pH 7.0 to pH 7.4. It was then filter sterilized.
Flexible fiber optic bronchoscopy was performed after valid consent and lignocaine nebulization. Patient was given 2 mg of IV midazolam and monitored under pulse oximetry and cardiac monitor. BAL fluid was collected with repeated aspirations of saline preferably from middle lobe.
BALF was passed through cell strainer to remove debris and mucus. BAL cells were isolated from BALf by centrifugation at 800 rpm for 10 min.
BAL cells were seeded at a density of 1×10^5 cells-2×10^5 cells/well in a 96 well plate coated with Anti-human CD3 antibody (10 μg/mL) and anti-human CD2 antibody (2 μg/mL). The plate was shaken gently and cells incubated for 5-10 minutes in an incubator with 37° C. and 5% CO2 to acclimatize. • 1. Cells were pre-incubated for 60 minutes at 37° C. with serial dilutions of Compound (I). This was followed by the addition of Anti-human CD28 antibody (2 μg/mL). • 2. Cells were incubated for 48-72 h in the incubator at 37° C. with 5% CO2. • 3. The plates were spun at 1200 rpm at 4° C. for 12 minutes, supernatant collected and used for IL17 estimation by ELISA.
(§1) Calculations: IL17 cytokine concentration in the supernatant was determined using linear regression from the standard graph and subsequently multiplied with respective dilution factors. Fold response (FR) was calculated as pg/ml of hIL17 in sample (treated) wells over pg/ml of hIL17 in Basal wells.
Percent Inhibition for each set treated with test compound was calculated by using the formula Percent Inhibition={100−(pg/mL of test compound/pg/mL of induced×100)} and IC50 values were calculated from concentration response curves by nonlinear regression analysis using GraphPad Prism software.

IL-17 [2] = assay: Ex-vivo IL-17 inhibition from peripheral blood (whole blood) from COPD patients; type: cell-based; conditions: Homo sapiens
Method: • 1. ˜8 mL whole blood was collected per patient. • 2. Human whole blood was diluted 1:1 with 0.85% NaCl. • 3. Diluted blood was loaded on a 96 well plate. Blood was pre-incubated for 60 minutes at 37° C. with serial dilutions of Compound (I). • 4. It was then transferred to 96 well plate coated with Anti-human CD3 antibody (final concentration—10 μg/mL). This was followed by the addition of Anti-human CD28 antibody (2 μg/mL). • 5. Cells were incubated for 48 h in the incubator at 37° C. with 5% CO2. The plates were spun at 1200 rpm at 4° C. for 12 minutes, supernatant collected and used for IL17 estimation by ELISA.
as §1
Percent Inhibition for each set treated with test compound was calculated by using the formula
Percent Inhibition={100−(pg/mL of test compound/pg/mL of induced×100)}
IC50 values were calculated from concentration response curves by nonlinear regression analysis using GraphPad Prism software.

[3] = Compatibility with inhalation grades of lactose monohydrate; type: physicochemical; conditions: Respitose ML006, Respitose SV010, Lactohale 201, Lactohale 200, Inhalac 230, Inhalac 70
From the text: It was observed that compound (I) is compatible with different commercially available inhalation grades of lactose monohydrate including Respitose ML006, Respitose SV010, Lactohale 201, Lactohale 200, Inhalac 230, Inhalac 70. Lactose Monohydrate is selected as a diluent for compound (I) (micronized) with the particle size d90 of ≤5 microns.

[4] = Particle size distribution, Malvern Mastersizer 2000S, wet dispersion; type: physicochemical; conditions: PSD retested results
Method: The particle size distribution studies were performed using Malvern Mastersizer 2000S using wet dispersion method. A sample of about […] of compound (I) was transferred in a beaker, and 2-3 drops of nonidet P-40 and 4-5 drops of water were added to the sample in beaker, and 25-30 ml of water was added and sonicated for 180 seconds with continuous stirring, and the dispersion/solution of compound (I) was added in sample handling unit of Hydro 20000S. The particle size measurement was done using Malvern Mastersizer 2000S.

[5] = particle size data during initial development, listed as A
[6] = particle size data during initial development, listed as B
[7] = particle size data during initial development, listed as C
[8] = particle size data during intermediate development, listed as D
[9] = particle size data during intermediate development, listed as E
[10] = particle size data during intermediate development, listed as F

Structure (SMILES): CCc1ccccc1-c1nccnc1-c1ccc(NC(=O)Cc2ccc(C(F)(F)C(C)O)cc2)cc1 (stereo in doubt) [Compound (I), 2-{4-[(2S)-1,1-difluoro-2-hydroxypropyl]phenyl}-N-{4-[3-(2-ethylphenyl)pyrazine-2-yl]phenyl}acetamide]
- inhibition of IL17 release (IL-17 [1]; BAL cells, at an ICmax concentration of 1-3 microns): > 70%
- pIC50 (IL-17 [1]; Homo sapiens): 6.85
- inhibition at 0.0001 µM (IL-17 [1]; Homo sapiens, COPD-BAL cells, 0.1 nM): 4.97%
- inhibition at 0.001 µM (IL-17 [1]; Homo sapiens, COPD-BAL cells, 1 nM): 2.39%
- inhibition at 0.003 µM (IL-17 [1]; Homo sapiens, COPD-BAL cells, 3 nM): 10.9%
- inhibition at 0.01 µM (IL-17 [1]; Homo sapiens, COPD-BAL cells, 10 nM): 13.9%
- inhibition at 0.03 µM (IL-17 [1]; Homo sapiens, COPD-BAL cells, 30 nM): 18.7%
- inhibition at 0.1 µM (IL-17 [1]; Homo sapiens, COPD-BAL cells, 100 nM): 41.4%
- inhibition at 0.3 µM (IL-17 [1]; Homo sapiens, COPD-BAL cells, 300 nM): 66.8%
- inhibition at 1 µM (IL-17 [1]; Homo sapiens, COPD-BAL cells, 1 μM): 71.1%
- inhibition at 3 µM (IL-17 [1]; Homo sapiens, COPD-BAL cells, 3 μM): 76.7%
- inhibition at 6 µM (IL-17 [1]; Homo sapiens, COPD-BAL cells, 6 μM): 78.8%
- inhibition at 10 µM (IL-17 [1]; Homo sapiens, COPD-BAL cells, 10 μM): 81.1%
- pIC50 (IL-17 [1]): 6.85
- inhibition at 0.0001 µM (IL-17 [2]; Whole Blood, 0.1 nM, read-out: IL17 A (% Inhibition)): 0.27%
- inhibition at 0.001 µM (IL-17 [2]; Whole Blood, 1 nM, read-out: IL17 A (% Inhibition)): 5.57%
- inhibition at 0.003 µM (IL-17 [2]; Whole Blood, 3 nM, read-out: IL17 A (% Inhibition)): 14.9%
- inhibition at 0.01 µM (IL-17 [2]; Whole Blood, 10 nM, read-out: IL17 A (% Inhibition)): 15.1%
- inhibition at 0.03 µM (IL-17 [2]; Whole Blood, 30 nM, read-out: IL17 A (% Inhibition)): 27.6%
- inhibition at 0.1 µM (IL-17 [2]; Whole Blood, 100 nM, read-out: IL17 A (% Inhibition)): 36.8%
- inhibition at 0.3 µM (IL-17 [2]; Whole Blood, 300 nM, read-out: IL17 A (% Inhibition)): 43.4%
- inhibition at 1 µM (IL-17 [2]; Whole Blood, 1 uM, read-out: IL17 A (% Inhibition)): 56.9%
- inhibition at 3 µM (IL-17 [2]; Whole Blood, 3 μM, read-out: IL17 A (% Inhibition)): 65%
- inhibition at 6 µM (IL-17 [2]; Whole Blood, 6 μM, read-out: IL17 A (% Inhibition)): 69.2%
- inhibition at 10 µM (IL-17 [2]; Whole Blood, 10 μM, read-out: IL17 A (% Inhibition)): 76.2%
- inhibition at 20 µM (IL-17 [2]; Whole Blood, 20 μM, read-out: IL17 A (% Inhibition)): 78.8%
- pIC50 (IL-17 [2]; stimulated whole blood from COPD patients, read-out: IC50, IL17 release): 6.55
- compatibility with commercially available inhalation grades of lactose monohydrate [3]: compatible

Structure (SMILES): CCc1ccccc1-c1nccnc1-c1ccc(NC(=O)Cc2ccc(C(F)(F)[C@@H](C)O)cc2)cc1 [API Batch A]
- d10 [4, 5]: 1.222 μm
- d50 [4, 5]: 2.064 μm
- d90 [4, 5]: 3.664 μm

Structure (SMILES): CCc1ccccc1-c1nccnc1-c1ccc(NC(=O)Cc2ccc(C(F)(F)[C@@H](C)O)cc2)cc1 [API Batch B]
- d10 [4, 6]: 0.106 μm
- d50 [4, 6]: 1.376 μm
- d90 [4, 6]: 3.278 μm

Structure (SMILES): CCc1ccccc1-c1nccnc1-c1ccc(NC(=O)Cc2ccc(C(F)(F)[C@@H](C)O)cc2)cc1 [API Batch C]
- d10 [4, 7]: 1.128 μm
- d50 [4, 7]: 2.010 μm
- d90 [4, 7]: 3.783 μm

Structure (SMILES): CCc1ccccc1-c1nccnc1-c1ccc(NC(=O)Cc2ccc(C(F)(F)[C@@H](C)O)cc2)cc1 [API Batch D]
- d10 [4, 8]: 0.110 microns
- d50 [4, 8]: 1.510 microns
- d90 [4, 8]: 3.638 microns

Structure (SMILES): CCc1ccccc1-c1nccnc1-c1ccc(NC(=O)Cc2ccc(C(F)(F)[C@@H](C)O)cc2)cc1 [API Batch E]
- d10 [4, 9]: 1.376 microns
- d50 [4, 9]: 2.591 microns
- d90 [4, 9]: 5.060 microns

Structure (SMILES): CCc1ccccc1-c1nccnc1-c1ccc(NC(=O)Cc2ccc(C(F)(F)[C@@H](C)O)cc2)cc1 [API Batch F]
- d10 [4, 10]: 1.244 microns
- d50 [4, 10]: 2.383 microns
- d90 [4, 10]: 4.752 microns
